# Legend:
# [1] = Drug elution from coated stents into physiologic saline solution (spectrophotometric assay); type: physicochemical; settings: Bx Velocity (316L) and Smart (nitinol) stents with Ni-P coating, physiologic saline changed daily (FIGS. 6 and 7)
# Description: Coated stents were formed using the same basic electroless deposition procedure in Example 1. However, in this example, instead of foil substrates, Johnson and Johnson Bx velocity stents (stainless steel) and Johnson and Johnson Smart stents (nitinol) were used as substrates. Bioactive composite structures in the form of layers were formed on the stents.
# The amounts on the y-axis of the graphs represent the amount of bioactive material remaining on the stent after elution into a physiologic saline solution.
# A similar anodization process as was used in the stent examples as was again applied to the foil substrates. After coating, the coated stent was placed in a physiologic saline solution and the solution changed daily. On the indicated days, the stent coatings were anodized. The amount of bioactive material released in each case was determined using a spectrophotometric assay.
# [2] = Optical absorbance of elution bath from coated 316L stainless steel sample in 0.9% saline; type: physicochemical; settings: 1 cm2 316L stainless steel sample
# Description: Table 3 depicts several experiments following the general procedures outlined in example 1, each with one time point and for a new bioactive material. M is the difference in absorbance between an elution bath from the sample containing the respective bioactive material and the absorbance from a sample with pure coating (i.e. control). In this instance, a 1 cm2 medical grade 316L stainless steel sample was coated using the above mentioned process.
# M refers to the absorbance difference between coated with bioactive material and coated without bioactive material.
"ΔA (absorbance difference, coated with vs without bioactive material) ([2]; Time = 0, immediately after deposition)","ΔA (absorbance difference, coated with vs without bioactive material) ([2]; after seven days in 0.9% saline solution, characteristic absorbance wavelength in parentheses)",Compound,time over which appreciable amounts were released [1] [days]
,,albumin,40
,,"O=c1[nH]cc(F)c(=O)[nH]1 [Fluorouracil, 5-fluorouracil]",40
0,2.4 (230 nm),heparin,

# — patent publication US20060121180A1, “Metallic structures incorporating bioactive materials and methods for creating the same” (Medlogics Device Corporation, priority 2001, published 2006)
